# Test system: yeast genes (level of expressed mRNA)
# Experiment: DNA chip analysis of expressed mRNA of yeast genes after 2 h culture with a toxic chemical substance
# Format: cell-based, Saccharomyces cerevisiae S288C
# Settings: for The level of expressed mRNA in the presence of chemical substance/ (ratio to absence of chemical substance): stress protein genes, DNA chip; for The level of expressed mRNA in the presence of chemical substance/ in its absence, gene YPR184W: yeast gene YPR184W
# Description: Yeast (Saccharomyces cerevtisiae S288C (α SUC2mal mel gap2 CUP1)) were cultured at 25° C. on YPD medium (yeast extract 1%, polypepton 2%, glucose 2%). One of toxic chemical substances was added to the cell at logarithmic growth phase, and the cell was further cultured for two hours. Cell was cultured without any chemical substance in the same condition, and was used as control. Concentrations of the chemical substances were defined to inhibit the growth of the yeast but not lead to death.
# After the completion of cultivation, the culture was centrifuged to collect the cells. To the cells, sodium acetate buffer (50 mM sodium acetate, 10 mM EDTA, 1% SDS) was added, and the mixture was shaken at 65° C. for five minutes, followed by returning to room temperature, and obtaining the supernatant, which procedure was repeated two times. To the supernatant, ½ amount of a solution of phenol/chloroform was added, and the mixture was centrifuged to give a supernatant, which was added with an equal amount of chloroform, and the mixture was centrifuged to give a supernatant. To the supernatant, an equal amount of isopropanol containing 0.3 M sodium acetate was added, and the mixture was allowed to stand at room temperature for 30 minutes, after which the mixture was centrifuged to give a sediment of the whole RNAs. Seventy % ethanol was added to the sediment, and the mixture was again centrifuged to give a sediment, which was then dried and dissolved in water. mRNA was isolated from the whole RNAs as followings. In view of the fact that a poly A chain is attached to the 3′ terminus of mRNA, a polynucleotide having a poly T structure which was immobilized on the surface of latex beads was used to trap the mRNA, and then the mRNA was washed and eluted with spine column (Oligotex-dT30<Super>mRNA Purification Kit, Takara). Reverse transcription of the mRNA was conducted with a reverse transcriptase (Super Script II Reverse Transcriptase; catalogue No. 18064-014, GibcoBRL) using fluorescence-labeled nucleotides to give cDNAs that were introduced with Cy3-dUTP or Cy5-dUTP during the reverse transcription.
# The labeled cDNAs were dissolved in TE buffer (10 mM Tris-HCl/1 mM EDTA, pH8.0), and the solution was dropped on the DNA chip containing the whole genes of yeast (DNA Chip Research Inc. Japan) so that the cDNAs were hybridized on the DNA chip at 65° C. for over 12 hours. The fluoresces intensity of the DNA chip was read with a scanner, and the ratio relative to the fluorescence intensity resulting from the absence of chemical substance was estimated as the following, which is shown in Tables 1 to 9: [formula]
# In the Tables, “Intensity” indicated in the rightmost column is a value of the level of expressed mRNA of each gene in control cells as divided by the average level of the expressions of the whole genes.
smiles,measurement,setting,value
"C[S+](C)[O-] [(15), dimethylsulfoxide]",The level of expressed mRNA in the presence of chemical substance/The level of expressed mRNA in the absence of chemical substance,yeast gene YMR314W,1.2
same,The level of expressed mRNA in the presence of chemical substance/The level of expressed mRNA in the absence of chemical substance,yeast gene YNL006W,0.7
same,The level of expressed mRNA in the presence of chemical substance/The level of expressed mRNA in the absence of chemical substance,yeast gene YNL007C,0.8
same,"The level of expressed mRNA in the presence of chemical substance/ (in its absence), gene YNL025C","yeast gene YNL025C, ratio of DNA chip fluorescence intensity to that without chemical substance",1.4
same,The level of expressed mRNA in the presence of chemical substance/ (ratio to absence of chemical substance),yeast gene YNL064C,0.7
same,"The level of expressed mRNA in the presence of chemical substance/ (ratio to absence), gene YNL073W","yeast gene YNL073W, mitochondria-located protein genes, 2 h culture with chemical",0.7
same,The level of expressed mRNA in the presence of chemical substance/The level of expressed mRNA in the absence of chemical substance,yeast gene YNL093W,0.6
same,"The level of expressed mRNA in the presence of chemical substance/ (in its absence), gene YNL192W","yeast gene YNL192W, ratio of DNA chip fluorescence intensity to that without chemical substance",2.1
same,The level of expressed mRNA in the presence of chemical substance/The level of expressed mRNA in the absence of chemical substance,yeast gene YNL333W,1.0
same,The level of expressed mRNA in the presence of chemical substance/The level of expressed mRNA in the absence of chemical substance,yeast gene YNR010W,0.8
same,The level of expressed mRNA in the presence of chemical substance/The level of expressed mRNA in the absence of chemical substance,yeast gene YNR069C,1.0
same,"The level of expressed mRNA in the presence of chemical substance/ (in its absence), gene YNR072W","yeast gene YNR072W, ratio of DNA chip fluorescence intensity to that without chemical substance",1.8
same,The level of expressed mRNA in the presence of chemical substance/ (ratio to absence of chemical substance),yeast gene YNR076W,1.1
same,The level of expressed mRNA in the presence of chemical substance/The level of expressed mRNA in the absence of chemical substance,yeast gene YOL013C,2.7
same,"The level of expressed mRNA in the presence of chemical substance/ (ratio to absence), gene YOL096C","yeast gene YOL096C, mitochondria-located protein genes, 2 h culture with chemical",1.0
same,"The level of expressed mRNA in the presence of chemical substance/ (in its absence), gene YOL096C","yeast gene YOL096C, ratio of DNA chip fluorescence intensity to that without chemical substance",1.0
same,"The level of expressed mRNA in the presence of chemical substance/ (in its absence), gene YOL108C","yeast gene YOL108C, ratio of DNA chip fluorescence intensity to that without chemical substance",1.5
same,"The level of expressed mRNA in the presence of chemical substance/ (in its absence), gene YOL116W","yeast gene YOL116W, ratio of DNA chip fluorescence intensity to that without chemical substance",0.7
same,The level of expressed mRNA in the presence of chemical substance/ (ratio to absence of chemical substance),yeast gene YOL161C,1.1
same,The level of expressed mRNA in the presence of chemical substance/The level of expressed mRNA in the absence of chemical substance,yeast gene YOL164W,1.0
same,The level of expressed mRNA in the presence of chemical substance/ (ratio to absence of chemical substance),yeast gene YOR008C,0.9
same,The level of expressed mRNA in the presence of chemical substance/ (ratio to absence of chemical substance),yeast gene YOR009W,0.6
same,The level of expressed mRNA in the presence of chemical substance/ (ratio to absence of chemical substance),yeast gene YOR010C,0.6
same,The level of expressed mRNA in the presence of chemical substance/The level of expressed mRNA in the absence of chemical substance,yeast gene YOR036W,1.2
same,"The level of expressed mRNA in the presence of chemical substance/ (in its absence), gene YOR103C","yeast gene YOR103C, ratio of DNA chip fluorescence intensity to that without chemical substance",1.4
same,The level of expressed mRNA in the presence of chemical substance/The level of expressed mRNA in the absence of chemical substance,yeast gene YOR117W,1.4
same,The level of expressed mRNA in the presence of chemical substance/The level of expressed mRNA in the absence of chemical substance,yeast gene YOR124C,1.3
same,The level of expressed mRNA in the presence of chemical substance/The level of expressed mRNA in the absence of chemical substance,yeast gene YOR132W,1.5
same,The level of expressed mRNA in the presence of chemical substance/The level of expressed mRNA in the absence of chemical substance,yeast gene YOR157C,1.9
same,"The level of expressed mRNA in the presence of chemical substance/ (in its absence), gene YOR180C","yeast gene YOR180C, ratio of DNA chip fluorescence intensity to that without chemical substance",1.1
same,The level of expressed mRNA in the presence of chemical substance/The level of expressed mRNA in the absence of chemical substance,yeast gene YOR181W,3.4
same,The level of expressed mRNA in the presence of chemical substance/The level of expressed mRNA in the absence of chemical substance,yeast gene YOR185C,1.0
same,"The level of expressed mRNA in the presence of chemical substance/ (in its absence), gene YOR251C","yeast gene YOR251C, ratio of DNA chip fluorescence intensity to that without chemical substance",0.6
same,The level of expressed mRNA in the presence of chemical substance/The level of expressed mRNA in the absence of chemical substance,yeast gene YOR259C,1.3
same,The level of expressed mRNA in the presence of chemical substance/The level of expressed mRNA in the absence of chemical substance,yeast gene YOR261C,1.3
same,The level of expressed mRNA in the presence of chemical substance/The level of expressed mRNA in the absence of chemical substance,yeast gene YOR288C,1.8
same,"The level of expressed mRNA in the presence of chemical substance/ (ratio to absence), gene YOR316C","yeast gene YOR316C, mitochondria-located protein genes, 2 h culture with chemical",1.5
same,"The level of expressed mRNA in the presence of chemical substance/ (in its absence), gene YOR348C","yeast gene YOR348C, ratio of DNA chip fluorescence intensity to that without chemical substance",1.6
same,The level of expressed mRNA in the presence of chemical substance/The level of expressed mRNA in the absence of chemical substance,yeast gene YOR355W,3.2
same,"The level of expressed mRNA in the presence of chemical substance/ (in its absence), gene YOR363C","yeast gene YOR363C, ratio of DNA chip fluorescence intensity to that without chemical substance",1.1
same,The level of expressed mRNA in the presence of chemical substance/The level of expressed mRNA in the absence of chemical substance,yeast gene YOR383C,1.1
same,"The level of expressed mRNA in the presence of chemical substance/ (ratio to absence), gene YPL040C","yeast gene YPL040C, mitochondria-located protein genes, 2 h culture with chemical",1.1
same,The level of expressed mRNA in the presence of chemical substance/ (ratio to absence of chemical substance),yeast gene YPL059W,1.0
same,The level of expressed mRNA in the presence of chemical substance/The level of expressed mRNA in the absence of chemical substance,yeast gene YPL089C,2.6
same,The level of expressed mRNA in the presence of chemical substance/The level of expressed mRNA in the absence of chemical substance,yeast gene YPL109C,1.3
same,"The level of expressed mRNA in the presence of chemical substance/ (ratio to absence), gene YPL134C","yeast gene YPL134C, mitochondria-located protein genes, 2 h culture with chemical",1.1
same,The level of expressed mRNA in the presence of chemical substance/ (ratio to absence of chemical substance),yeast gene YPL140C,0.7
same,"The level of expressed mRNA in the presence of chemical substance/ (in its absence), gene YPL148C","yeast gene YPL148C, ratio of DNA chip fluorescence intensity to that without chemical substance",0.6
same,The level of expressed mRNA in the presence of chemical substance/The level of expressed mRNA in the absence of chemical substance,yeast gene YPL149W,0.8
same,The level of expressed mRNA in the presence of chemical substance/The level of expressed mRNA in the absence of chemical substance,yeast gene YPL154C,4.0
same,The level of expressed mRNA in the presence of chemical substance/ (ratio to absence of chemical substance),yeast gene YPL194W,1.4
same,The level of expressed mRNA in the presence of chemical substance/ (ratio to absence of chemical substance),yeast gene YPR005C,2.7
same,The level of expressed mRNA in the presence of chemical substance/The level of expressed mRNA in the absence of chemical substance,yeast gene YPR103W,1.0
same,The level of expressed mRNA in the presence of chemical substance/The level of expressed mRNA in the absence of chemical substance,yeast gene YPR108W,1.3
same,"The level of expressed mRNA in the presence of chemical substance/ (in its absence), gene YPR165W","yeast gene YPR165W, ratio of DNA chip fluorescence intensity to that without chemical substance",0.9
same,"The level of expressed mRNA in the presence of chemical substance/ in its absence, gene YPR184W","energy system protein genes, 2 h culture with the chemical, ratio to control without chemical",1.5
same,"The level of expressed mRNA in the presence of chemical substance/ in its absence, gene YPR184W",ratio of DNA chip fluorescence intensity to that without chemical substance,1.5

# Reference: patent US20050112573A1, “Method of detecting toxic substance” (priority 2001, published 2005)
